Experimental data published in US20030157182A1, “Pharmaceutical preparations and their manufacture” (priority 2000, published 2003).

What was measured:
[1] = Normalised Kurtosis of the particle size distribution (Microsoft Excel KURT function on Mastersizer classes); format: physicochemical; conditions: for Normalised Kurtosis: particle size by volume, Mastersizer 2000 classes, 0 = mesokurtic normal distribution; for normalized Kurtosis: positive = narrow size distribution
Source text: The normalized Kurtosis is defined in formula (2) above and can be derived for a given particle size distribution by using any of a number of widely available statistical software packages, for example, Microsoft Excel.
A large number of data points is required to provide an accurate analysis of the Kurtosis of a particle size distribution. Indeed a true Kurtosis value would require the exact size of every particle in a distribution.
(§1) Using the Malvern Mastersizer 2000 we have examined the particle size by volume of a range of materials. The Mastersizer 2000 utilises a log-normal scale for description of particle sizes. We have then examined the data statistically to determine normalized Kurtosis by copying the particle size data into Microsoft Excel and performing the “KURT” function according to the method given in Example 1. Kurtosis values for those materials are given in Table 1 along with volume median diameters. A mesokurtic normal distribution has a normalized Kurtosis value of zero.
(iv) The results shown in Table 2 were analysed using the KURT function of Microsoft Excel which gave the normalized Kurtosis value of 6.93.

[2] = Particle size distribution by volume, Malvern Mastersizer 2000; format: physicochemical; conditions: for d(0.5): volume median diameter, μm
Source text: as §1
(i) The active particles were suspended (using stirring and sonication) in cyclohexane with 0.1% lecithin. Sufficient active particles were used to ensure the necessary obscuration;
(ii) The suspension was placed in the wet cell of the Malvern Mastersizer 2000 and the particle size distribution was measured using an appropriate lens system;
(iii) The results were analysed using the proprietary software of the Mastersizer 2000 to produce the size distribution given in Table 2.

[3] = listed as paracetamol material according to the invention
[4] = listed as commercial grade of paracetamol

SMILES | Normalised Kurtosis [1] | normalized Kurtosis ([1]; listed as milled paracetamol) | volume median diameter / volume median particle size ([2]; listed as milled paracetamol) [μm] | d(0.5) [2] [µm] | normalized Kurtosis [1] | normalized Kurtosis [1, 3] | polydispersity of particle size distribution ([2]; FIG. 2, compared to the Sigma paracetamol starting material) | volume median diameter / volume median particle size [2, 3] [μm] | normalized Kurtosis [1, 4] | volume median diameter / volume median particle size [2, 4] [μm]
CC(=O)Nc1ccc(O)cc1 [Paracetamol Milled Sigma, Paracetamol] | −1.10 | −1.1 | 12 | 12 | – | – | – | – | – | –
CC(=O)Nc1ccc(O)cc1 [Paracetamol from Example 1, Paracetamol] | 6.93 | – | – | 21 | 6.93 | 6.9 | much reduced polydispersity | 12 | – | –
CC(=O)Nc1ccc(O)cc1 [Sigma Paracetamol, Paracetamol] | −0.43 | – | – | 19 | – | – | – | – | −0.43 | 19
